The subject of assay [1] is SNB-75. Kind of assay: Cytotoxicity against human SNB75 cells assessed as cell growth at 10^-4 M after 48 hrs by SRB assay. Type of assay: functional. Conditions: SNB-75, 48 h, read-out: Activity.
Assay [2] relates to SNB-75. Description: Cytotoxicity against human SNB75 cells assessed as cell growth at 10^-7 M after 48 hrs by SRB assay. The assay is classed as functional. Conditions: SNB-75, 48 h, read-out: Activity.
Assay [3] has as its system SNB-75. Description: Cytotoxicity against human SNB75 cells assessed as cell growth at 10^-6 M after 48 hrs by SRB assay. As to conditions: SNB-75, 48 h, read-out: Activity. Type of assay: functional.
Assay [4] concerns SNB-75. Kind of assay: Cytotoxicity against human SNB75 cells after 48 hrs by SRB assay. Type of assay: functional, cell-based. As to conditions: SNB-75, 48 h.
In assay [5] the test system is SNB-75. Description: Cytotoxicity against human SNB75 cells assessed as cell growth at 10^-8 M after 48 hrs by SRB assay. As to conditions: SNB-75, 48 h, read-out: Activity. The assay is classed as functional.
Assay [6] relates to A549. Description: Cytotoxicity against human A549 cells assessed as cell growth at 10^-4 M after 48 hrs by SRB assay. The assay is classed as functional. As to conditions: A549, 48 h, read-out: Activity.
A short description of assay [7]: Cytotoxicity against human NCI-ADR-RES cells assessed as growth inhibition at 10 uM after 48 hrs by SRB assay. Type of assay: functional. As to conditions: read-out: GI.
For assay [8], the system named is SNB-75. Kind of assay: Cytotoxicity against human SNB75 cells assessed as growth inhibition at 10 uM after 48 hrs by SRB assay. Type of assay: functional. Conditions: SNB-75, 48 h, read-out: GI.
Another assay relates to SN12C. Kind of assay: Cytotoxicity against human SN12C cells assessed as growth inhibition at 10 uM after 48 hrs by SRB assay. The assay is classed as functional. Conditions: read-out: GI.
The next assay deals with SK-MEL-5. Kind of assay: Cytotoxicity against human SK-MEL-5 cells assessed as growth inhibition at 10 uM after 48 hrs by SRB assay. The assay is classed as functional. Conditions: SK-MEL-5, 48 h, read-out: GI.
Assay [9] in a line: Cytotoxicity against human UACC257 cells assessed as cell growth at 10^-7 M after 48 hrs by SRB assay. The assay is classed as functional. As to conditions: UACC-257, 48 h, read-out: Activity.
The test system of a further assay is COLO 205. Kind of assay: Cytotoxicity against human COLO205 cells assessed as growth inhibition at 10 uM after 48 hrs by SRB assay. Type of assay: functional. Conditions: COLO 205, 48 h, read-out: GI.
In another assay the test system is CCRF-CEM. Kind of assay: Cytotoxicity against human CCRF-CEM cells assessed as growth inhibition at 10 uM after 48 hrs by SRB assay. As to conditions: read-out: GI. Type of assay: functional.
The test system of another assay is NCI-H522. Description: Cytotoxicity against human NCI-H522 cells assessed as growth inhibition at 10 uM after 48 hrs by SRB assay. The assay is classed as functional. Conditions: NCI-H522, 48 h, read-out: GI.
A further assay relates to SK-MEL-2. Description: Cytotoxicity against human SK-MEL-2 cells assessed as growth inhibition at 10 uM after 48 hrs by SRB assay. The assay is classed as functional. As to conditions: SK-MEL-2, 48 h, read-out: GI.
For another assay, the system named is UACC-62. Kind of assay: Cytotoxicity against human UACC62 cells assessed as growth inhibition at 10 uM after 48 hrs by SRB assay. Type of assay: functional. Conditions: UACC-62, 48 h, read-out: GI.
The next assay has as its system HT-29. Kind of assay: Cytotoxicity against human HT-29 cells assessed as growth inhibition at 10 uM after 48 hrs by SRB assay. Type of assay: functional. Conditions: HT-29, 48 h, read-out: GI.
The test system of another assay is LOX IMVI. Description: Cytotoxicity against human LOXIMVI cells assessed as growth inhibition at 10 uM after 48 hrs by SRB assay. The assay is classed as functional. Conditions: read-out: GI.
Assay [10] can be described thus: Cytotoxicity against human UACC257 cells assessed as cell growth at 10^-4 M after 48 hrs by SRB assay. The assay is classed as functional. Conditions: UACC-257, 48 h, read-out: Activity.
In assay [11] the test system is OVCAR-3. Kind of assay: Cytotoxicity against human OVCAR3 cells assessed as cell growth at 10^-4 M after 48 hrs by SRB assay. As to conditions: OVCAR-3, 48 h, read-out: Activity. The assay is classed as functional.
The subject of a further assay is MDA-MB-231. Description: Cytotoxicity against human MDA-MB-231 cells assessed as growth inhibition at 10 uM after 48 hrs by SRB assay. The assay is classed as functional. Conditions: MDA-MB-231, 48 h, read-out: GI.
The subject of another assay is MCF7. Kind of assay: Cytotoxicity against human MCF7 cells assessed as growth inhibition at 10 uM after 48 hrs by SRB assay. Type of assay: functional. As to conditions: MCF7, 48 h, read-out: GI.
Another assay concerns MDA-MB-468. Description: Cytotoxicity against human MDA-MB-468 cells assessed as growth inhibition at 10 uM after 48 hrs by SRB assay. Type of assay: functional. As to conditions: MDA-MB-468, 48 h, read-out: GI.
The test system of assay [12] is A549. Kind of assay: Cytotoxicity against human A549 cells assessed as cell growth at 10^-8 M after 48 hrs by SRB assay. Conditions: A549, 48 h, read-out: Activity. Type of assay: functional.
Assay [13] can be described thus: Cytotoxicity against human UACC257 cells after 48 hrs by SRB assay. Type of assay: functional. As to conditions: UACC-257, 48 h.
The next assay deals with SF-295. Description: Cytotoxicity against human SF295 cells assessed as growth inhibition at 10 uM after 48 hrs by SRB assay. Type of assay: functional. As to conditions: SF-295, 48 h, read-out: GI.
Assay [14] is described as follows: Cytotoxicity against human Hs578T cells assessed as growth inhibition at 10 uM after 48 hrs by SRB assay. Type of assay: functional. Conditions: Hs-578T, read-out: GI.
The test system of the next assay is K562. Description: Cytotoxicity against human K562 cells assessed as growth inhibition at 10 uM after 48 hrs by SRB assay. The assay is classed as functional. Conditions: K562, 48 h, read-out: GI.
The subject of assay [15] is A549. Kind of assay: Cytotoxicity against human A549 cells after 48 hrs by SRB assay. Type of assay: functional. As to conditions: A549, 48 h.
A further assay deals with PC-3. Description: Cytotoxicity against human PC3 cells assessed as growth inhibition at 10 uM after 48 hrs by SRB assay. Type of assay: functional. Conditions: PC-3, 48 h, read-out: GI.
The subject of a further assay is BT-549. Description: Cytotoxicity against human BT549 cells assessed as growth inhibition at 10 uM after 48 hrs by SRB assay. Type of assay: functional. Conditions: BT-549, 48 h, read-out: GI.
In another assay the test system is SW-620. Kind of assay: Cytotoxicity against human SW620 cells assessed as growth inhibition at 10 uM after 48 hrs by SRB assay. As to conditions: SW-620, 48 h, read-out: GI. The assay is classed as functional.
Assay [16] deals with OVCAR-3. Kind of assay: Cytotoxicity against human OVCAR3 cells assessed as growth inhibition at 10 uM after 48 hrs by SRB assay. The assay is classed as functional. Conditions: OVCAR-3, 48 h, read-out: GI.
The subject of the next assay is KM12. Description: Cytotoxicity against human KM12 cells assessed as growth inhibition at 10 uM after 48 hrs by SRB assay. The assay is classed as functional. As to conditions: KM12, 48 h, read-out: GI.
A short description of assay [17]: Cytotoxicity against human OVCAR4 cells assessed as growth inhibition at 10 uM after 48 hrs by SRB assay. The assay is classed as functional. Conditions: OVCAR-4, 48 h, read-out: GI.
Another assay deals with SR. Description: Cytotoxicity against human SR cells assessed as growth inhibition at 10 uM after 48 hrs by SRB assay. Type of assay: functional. As to conditions: read-out: GI.
The test system of a further assay is MDA-MB-435. Kind of assay: Cytotoxicity against human MDA-MB-435 cells assessed as growth inhibition at 10 uM after 48 hrs by SRB assay. The assay is classed as functional. Conditions: MDA-MB-435, 48 h, read-out: GI.
Assay [18] is described as follows: Cytotoxicity against human UACC257 cells assessed as cell growth at 10^-8 M after 48 hrs by SRB assay. As to conditions: UACC-257, 48 h, read-out: Activity. The assay is classed as functional.
Assay [19] concerns A549. Kind of assay: Cytotoxicity against human A549 cells assessed as cell growth at 10^-7 M after 48 hrs by SRB assay. The assay is classed as functional. As to conditions: A549, 48 h, read-out: Activity.
The next assay relates to MOLT-4. Description: Cytotoxicity against human MOLT4 cells assessed as growth inhibition at 10 uM after 48 hrs by SRB assay. The assay is classed as functional. As to conditions: MOLT-4, 48 h, read-out: GI.

SMILES strings stand for the structures.

Experimental findings from ChEMBL document CHEMBL3112450, “Synthesis and in vitro antitumor evaluation of primary amine substituted quinazoline linked benzimidazole” (Bioorg Med Chem Lett, 2014) are described below.

Consider `C=CCn1c(C)nc2cc(Nc3nc(Nc4ccc5nc(C)n(CC=C)c5c4)c4ccccc4n3)ccc21`, for which the growth at 100 µM in the assay with SNB-75 [1] is -61%. The growth at 0.1 µM in the assay with SNB-75 [2] was 93%. The growth at 1 µM in the assay on SNB-75 [3] amounted to 18%. In the assay on SNB-75 [4], this molecule showed a GI50 of 0.375 µM, an LC50 (concentration killing 50% of cells) of 5.31 µM and a TGI of 1.56 µM. Further, in the assay with SNB-75 [5], the growth at 0.01 µM was 84%.
`C=CCn1c(C)nc2ccc(Nc3nc(Nc4ccc(F)cc4)nc4ccccc34)cc21`: the growth at 100 µM with SNB-75 [1] was -57%; with A549 [6], -49%; in assay [10], -73%; in the assay on OVCAR-3 [11] it was -90%. The inhibition of growth at 10 µM in assay [7] was 50%; in the assay on SNB-75 [8], 40%; in the assay with SN12C, 30%; in the assay on SK-MEL-5, 50%; with COLO 205, 50%; in the assay on CCRF-CEM, 70%. Moreover, the inhibition of growth at 10 µM in the assay with NCI-H522 was 40%; in the assay on SK-MEL-2, 40%; in the assay on UACC-62 it was 30%; in the assay with HT-29, 70%; in the assay with LOX IMVI, 50%; in the assay on MDA-MB-231, 30%. Also, the inhibition of growth at 10 µM in the assay with MCF7 turned out to be 70%; with MDA-MB-468, 50%; with SF-295, 50%; in assay [14], 40%; with K562 it was 70%; in the assay on PC-3, 50%. Besides, the inhibition of growth at 10 µM in the assay with BT-549 came out at 40%; with SW-620, 50%; with OVCAR-3 [16], 40%; in the assay on KM12 it was 50%; in assay [17], 50%; in the assay on SR it was 70%. Moreover, the inhibition of growth at 10 µM with MDA-MB-435 turned out to be 40%. Further, the growth at 0.1 µM in the assay on SNB-75 [2] came out at 80%; in assay [9], 98%; in the assay on A549 [19], 97%. Besides, the growth at 1 µM with SNB-75 [3] came out at 76%. The GI50 in the assay on SNB-75 [4] stood at 1.51 µM; in assay [13], 13.1 µM; with A549 [15], 4.18 µM. Moreover, the 50% inhibitory concentration (IC50) in the assay on SNB-75 [4] stood at 7.5 µM. The TGI in the assay with SNB-75 [4] is 3.37 µM; in [13] it was 29.9 µM; with A549 [15], 22.2 µM. The growth at 0.01 µM is 94% in the assay on A549 [12], 76% in the assay with SNB-75 [5] and 98% in assay [18]. For the same molecule, the LC50 (concentration killing 50% of cells) in assay [13] came to 68.3 µM. The median lethal concentration (LC50) in the assay on A549 [15] was over 100 µM.
In the case of `C=CCn1c(C)nc2ccc(Nc3nc(Sc4ccc(N)cc4)nc4ccccc34)cc21`, in the assay on CCRF-CEM, the inhibition of growth at 10 µM came out at 30%.
As to `C=CCn1c(C)nc2cc(Nc3nc(NCCO)nc4ccccc34)ccc21`, the inhibition of growth at 10 µM amounted to 30% in the assay with SK-MEL-5; 50% in the assay on COLO 205; 30% in the assay with HT-29; 30% with MDA-MB-231; 40% with MOLT-4; 30% in the assay on MCF7. The inhibition of growth at 10 µM was determined as 40% with MDA-MB-468; 30% in the assay with K562; 30% with PC-3; 30% in the assay on SW-620; 30% in the assay with KM12; 30% in [17]. Besides, the inhibition of growth at 10 µM in the assay with SR amounted to 30%.
Turning to `C=CCn1c(C)nc2ccc(Nc3nc(Nc4ccc5nc(C)n(CC=C)c5c4)c4ccccc4n3)cc21`, the growth at 100 µM in the assay with A549 [6] is -14%; in [10], -49%; in the assay on OVCAR-3 [11] it was -48%. Further, the inhibition of growth at 10 µM is 40% in assay [7] and 30% with BT-549. Further, the growth at 0.1 µM in [9] was found to be 92%; with A549 [19], 101%. Besides, the growth at 0.01 µM in the assay on A549 [12] is 99%; in [18], 90%. For the same molecule, the GI50 stood at 1.57 µM in [13] and 1.72 µM in the assay on A549 [15]. For the same molecule, the concentration for total growth inhibition (TGI) in [13] was 3.03 µM; with A549 [15], 3.22 µM.
